A word on the Kd: it is the constant that tells how readily two partners part at equilibrium.

Ends that are not written are not given here.

In series [1] the test system is HasBCTD. The series is described as follows: ITC interaction of HasBCTD with HasR TonB box peptides. It counts as binding, Serratia marcescens. As for the experimental part:
(§1) The TonB box peptides were synthesized with free acid C- and amine N-termini by Proteogenix (Strasbourg, France).
(§2) ITC was performed at 25°C using a MicroCal VP titration calorimeter (MicroCal-GE Healthcare) under the same conditions as described previously. The buffer was 20 mM sodium phosphate, pH 7, 50 mM NaCl for all the titrations, except for experiments carried out in the presence of HasR where 20 mM sodium phosphate, pH 7, 0.08% ZW 3–14 was used.
The heat of dilution of peptide/protein injections was determined either by injecting the ligand into the buffer alone or by injecting the ligand into the cell after the saturation of the protein binding site. The value obtained was subtracted from the heat of reaction to give the effective heat of binding. The resulting titration data were analyzed using Microcal-ORIGIN software package. The molar binding stoichiometry (N), association constant (Ka; Kd = 1/Ka) and enthalpy changes (ΔH) of binding were determined by fitting the binding isotherm to a model with one set of sites. Their values are the average of three experiments. […] For HasR titration experiments with HasB, 5–8×10^−5 M of HasBCTD wild type or mutants and 3–5 µM of HasR were used.

Series [2] in a line: Conformation of 21-mer peptide in solution by 2D TOCSY, NOESY and ROESY. The class given is physicochemical. Particulars: free peptide, data not shown.
In series [3] the test system is HasBCTD. The series is described as follows: NMR chemical shift perturbation of HasBCTD by HasR TonB box peptides. It counts as binding, Serratia marcescens. Particulars: for chemical shift perturbation in 15N-1H HSQC spectra of HasBCTD: NMR HSQC, 293K, 50 mM sodium phosphate buffer, pH 7, 50 mM NaCl, 15% D2O/H2O, peptide:HasBCTD ratios 1∶2 to 4∶1, CSP >0.2 ppm considered large. As for the experimental part: All NMR experiments were recorded at 293K on a Varian 600 MHz spectrometer with a cryogenically cooled triple resonance ^1H/(^15N/^13C) PFG probe. Proton chemical shifts were referenced to 2,2-dimethyl-2-silapentane-5-sulfonate (DSS) as 0 ppm. ^15N and ^13C chemical shifts were referenced indirectly to DSS. The pulse sequences were taken as implemented in the Varian BioPack. NMR data were processed using NMRPipe/NMRDraw and spectra were analyzed using NMRViewJ and CCPNMR Analysis, [24]. The HasB samples used for NMR experiments were from 0.35 to 0.7 mM in 50 mM sodium phosphate buffer, pH 7, 50 mM NaCl and 15% D2O/H2O (v/v).
CSP values of ^1H and ^15N amide of HasBCTD were obtained after interaction with the TonB box peptide by comparing the ^1H-^15N HSQC spectra of free and bound HasBCTD as previously explained. The samples were prepared in 50 mM sodium phosphate buffer, pH 7, 50 mM NaCl and 15% D2O/H20 (v/v). Lyophilized peptides were added to the HasBCTD solution at 1∶2, 1∶1, 2∶1 and 4∶1 ratios. CSP values greater than 0.2 ppm were considered as large. For proline residues no chemical shift change can be observed because of the lack of backbone amide proton.

The next series has as its target T1, TonBCTD (Escherichia coli, UniProt P02929).
T1 construct: TonBCTD (TonB C-terminal domain); made in house
The series is described as follows: ITC interaction of TonBCTD with TonB box peptide. The class given is binding, E. coli. As for the experimental part: Labeled and unlabeled HasBCTD (named HasB133 in our earlier publication) were prepared as described. TonBCTD of E. coli , previously named TonB116, was prepared as already reported. HasB mutations were introduced by PCR into the plasmid encoding HasBCTD wild type with the following pairs of oligonucleotides:
as §1, §2
The heat of dilution of peptide/protein injections was determined either by injecting the ligand into the buffer alone or by injecting the ligand into the cell after the saturation of the protein binding site. The value obtained was subtracted from the heat of reaction to give the effective heat of binding. The resulting titration data were analyzed using Microcal-ORIGIN software package. The molar binding stoichiometry (N), association constant (Ka; Kd = 1/Ka) and enthalpy changes (ΔH) of binding were determined by fitting the binding isotherm to a model with one set of sites. Their values are the average of three experiments. HasBCTD/TonBCTD titrations with peptides were carried out by injecting 20–35 consecutive aliquots of 5–10 µL of a 1–1.5 mM peptide solution into the ITC cell containing 4 to 9×10^−5 M of protein solution of either HasBCTD or TonBCTD. For HasR titration experiments with HasB, 5–8×10^−5 M of HasBCTD wild type or mutants and 3–5 µM of HasR were used.

T1 sequence (P02929 148-239): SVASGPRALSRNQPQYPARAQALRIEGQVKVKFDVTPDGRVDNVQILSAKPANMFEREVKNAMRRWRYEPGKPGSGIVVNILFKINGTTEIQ

In the case of GDGGALALDSLTVLGAGGNNA [21-mer peptide], the “affinity constant (Ka)” value in the series on HasBCTD [1] (ITC, HasBCTD, 25°C, 20 mM sodium phosphate, pH 7, 50 mM NaCl, one set of sites, average of three experiments, HasBCTD 9×10^−5 M, peptide 1.5 mM) turned out to be 40000 M⁻¹. This sequence also yielded a Kd at HasBCTD [1] (ITC, HasBCTD, 25°C, 20 mM sodium phosphate, pH 7, 50 mM NaCl, Kd = 1/Ka) of 25 µM. Moreover, the conformation in solution entry in series [2] is “unstructured in solution”. The “location of the most substantial CSP on HasBCTD” value with HasBCTD [3] (15N HSQC, 21-mer peptide) is “especially along the strand β3 and on the helix H1”. The “chemical shift perturbation in 15N-1H HSQC spectra of HasBCTD” value with HasBCTD [3] was “several CSP were observed”.
ALDSLTVLGAGG [dodecamer peptide]: the “interaction with HasBCTD (in words)” value in the series on HasBCTD [1] (ITC and NMR CSP) was “did not reveal any interaction with HasBCTD”. The “affinity (association constant Ka)” value on TonBCTD (ITC, TonBCTD, 25°C, 20 mM sodium phosphate, pH 7, 50 mM NaCl, one set of sites, average of three experiments) is on record as “about 2×10^4 M^−1”. Also, binding on TonBCTD (ITC, TonBCTD, 25°C, 20 mM sodium phosphate, pH 7, 50 mM NaCl, Kd = 1/Ka) was put at a Kd of 50 µM. The “interaction with TonBCTD (in words)” value at TonBCTD (same range of concentration as that used with HasBCTD) is “able to bind to TonBCTD”. Moreover, the “chemical shift perturbation in 15N-1H HSQC spectra of HasBCTD” value with HasBCTD [3] is listed as “no chemical shift perturbation could be observed”.
